These results are taken from patent US20050106226A1, “Pretreatment method and system for enhancing transdermal drug delivery” (priority 2003, published 2005).

Data set [1] is described as follows: Passive transdermal delivery of PPS from hydrogel gel patch after microprojection array pretreatment, determined by urinary excretion of tritium. It counts as in vivo, hairless guinea pig. Particulars: passive diffusion. As for the experimental part:
In this experiment, PPS was delivered by passive diffusion through skin pathways created by a pretreatment device having a microprojection array. The microprojection array comprised a stainless steel sheet having a thickness of 0.025 mm, trapezoidally shaped microprojections bent at an angle of approximately 90° to the plane of the sheet and a microprojection density of 241 microprojections/cm^2. […] The gel patch comprised a foam, double adhesive ring (diameter 3.8 cm, thickness 0.16 cm) having 0.35 mL of a hydrogel formulation and a skin contact area of 2 cm^2. The hydrogel formulation included tritiated PPS at 50 mg/mL in a 2% hydroxyethyl cellulose ([…], HERCULES Int. Lim. Netherlands, determined molecular weight: Mw 1890000, Mn 1050000) hydrogel. […] The amount of the biologically active agent (or drug) that penetrated the skin during selected time intervals was determined by measuring urinary excretion of tritium (previous studies had shown that in HGP's 32% of 3H-PPS injected intravenously is excreted in urine). […] After 24 h delivery, more than 6 mg of PPS had been administered systemically.

The conditions of data set [2]: injected intravenously, HGP; cited from earlier work.

Turning to pentosan polysulfate [PPS], in data set [1] (after 24 h delivery, tritiated PPS 50 mg/mL in 2% HEC hydrogel, 0.35 mL, 2 cm^2), the “amount of PPS administered systemically” value is recorded as “more than 6 mg”. The “flux of PPS through the skin” value in data set [1] (FIG. 19) is given as “time dependant flux”. Also, the “fraction of 3H-PPS excreted in urine” value in data set [2] is given as 32%.
